According to the kinase profiling compilation of Christmann-Franck et al. (2016):
“And” between values parts separate entries of the source, which are not always exact repeats. Equal entries are not always repeated.

Experiments:
Assay in all cases: radiometric filter-binding kinase assay, Kinase HotSpot
Details in all cases: compound 0.5 µM; ATP 10 µM
DAPK1 (human) = DAPK1 (human) (UniProt P53355)
JAK3 JH1 JH2 (human) = JAK3 JH1 JH2 (human) (UniProt P52333)
STK3 (human) = STK3 (human) (UniProt Q13188)
NEK6 (human) = NEK6 (human) (UniProt Q9HC98)
MAP4K2 (human) = MAP4K2 (human) (UniProt Q12851)
HIPK3 (human) = HIPK3 (human) (UniProt Q9H422)
EPHA8 (human) = EPHA8 (human) (UniProt P29322)
MAPKAPK2 (human) = MAPKAPK2 (human) (UniProt P49137)
PRKG1 (human) = PRKG1 (human) (UniProt Q13976)
INSR (human) = INSR (human) (UniProt P06213)
MELK (human) = MELK (human) (UniProt Q14680)
CSK (human) = CSK (human) (UniProt P41240)
TNK2 (human) = TNK2 (human) (UniProt Q07912)
EPHA7 (human) = EPHA7 (human) (UniProt Q15375)
AURKB (human) = AURKB (human) (UniProt Q96GD4)
NTRK3 (human) = NTRK3 (human) (UniProt Q16288)
KIT (human) = KIT (human) (UniProt P10721)
STK24 (human) = STK24 (human) (UniProt Q9Y6E0)
CDK9 CCNT1 (human) = CDK9 CCNT1 (human) (UniProt P50750+O60563)
BMX (human) = BMX (human) (UniProt P51813)
PIM2 (human) = PIM2 (human) (UniProt Q9P1W9)
SGK3 (human) = SGK3 (human) (UniProt Q96BR1)
ADRBK2 (human) = ADRBK2 (human) (UniProt P35626)
PAK7 (human) = PAK7 (human) (UniProt Q9P286)
[1] = target: JAK1 JH1 catalytic (human) (UniProt P23458)
PHKG2 (human) = PHKG2 (human) (UniProt P15735)
GRK5 (human) = GRK5 (human) (UniProt P34947)
TYRO3 (human) = TYRO3 (human) (UniProt Q06418)
MAP3K5 (human) = MAP3K5 (human) (UniProt Q99683)
CHEK2 (human) = CHEK2 (human) (UniProt O96017)
STK39 (human) = STK39 (human) (UniProt Q9UEW8)
YES1 (human) = YES1 (human) (UniProt P07947)
MATK (human) = MATK (human) (UniProt P42679)
DMPK (human) = DMPK (human) (UniProt Q09013)
PRKCH (human) = PRKCH (human) (UniProt P24723)
CDK9 CCNK (human) = CDK9 CCNK (human) (UniProt O75909+P50750)
LRRK2 (human) = LRRK2 (human) (UniProt Q5S007)
SYK (human) = SYK (human) (UniProt P43405)
CDK1 CCNA2 (human) = CDK1 CCNA2 (human) (UniProt P06493+P20248)
EPHA4 (human) = EPHA4 (human) (UniProt P54764)
PRKD1 (human) = PRKD1 (human) (UniProt Q15139)
NUAK1 (human) = NUAK1 (human) (UniProt O60285)

EPHA8 (human), sequence (P29322 whole entry, looked up): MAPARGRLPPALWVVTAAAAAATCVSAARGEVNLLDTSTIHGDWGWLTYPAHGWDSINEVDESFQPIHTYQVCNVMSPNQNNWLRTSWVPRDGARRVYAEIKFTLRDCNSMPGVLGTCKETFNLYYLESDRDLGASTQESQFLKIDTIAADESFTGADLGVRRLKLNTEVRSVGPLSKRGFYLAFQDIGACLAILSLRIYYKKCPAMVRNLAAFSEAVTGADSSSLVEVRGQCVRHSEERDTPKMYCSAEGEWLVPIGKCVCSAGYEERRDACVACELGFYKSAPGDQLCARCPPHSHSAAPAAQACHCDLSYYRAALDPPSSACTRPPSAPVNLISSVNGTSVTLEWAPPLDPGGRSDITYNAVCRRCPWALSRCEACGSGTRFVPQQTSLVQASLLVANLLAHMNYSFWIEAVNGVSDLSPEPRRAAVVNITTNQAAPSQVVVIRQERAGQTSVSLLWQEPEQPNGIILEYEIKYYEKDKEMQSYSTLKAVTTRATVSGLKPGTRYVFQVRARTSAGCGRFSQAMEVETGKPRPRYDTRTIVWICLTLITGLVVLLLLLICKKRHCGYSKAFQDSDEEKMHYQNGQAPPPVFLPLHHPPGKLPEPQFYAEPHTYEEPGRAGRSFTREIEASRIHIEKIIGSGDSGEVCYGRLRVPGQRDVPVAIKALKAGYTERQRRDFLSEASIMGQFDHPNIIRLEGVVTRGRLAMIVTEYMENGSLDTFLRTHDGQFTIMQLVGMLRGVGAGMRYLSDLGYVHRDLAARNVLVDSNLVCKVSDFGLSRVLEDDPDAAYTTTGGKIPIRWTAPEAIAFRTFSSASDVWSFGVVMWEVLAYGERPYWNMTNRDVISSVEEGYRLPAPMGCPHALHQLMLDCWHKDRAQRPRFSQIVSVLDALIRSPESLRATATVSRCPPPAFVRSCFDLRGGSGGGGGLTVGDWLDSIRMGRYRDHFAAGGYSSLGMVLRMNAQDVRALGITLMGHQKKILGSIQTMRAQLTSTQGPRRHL
PRKG1 (human), sequence (Q13976 whole entry, looked up): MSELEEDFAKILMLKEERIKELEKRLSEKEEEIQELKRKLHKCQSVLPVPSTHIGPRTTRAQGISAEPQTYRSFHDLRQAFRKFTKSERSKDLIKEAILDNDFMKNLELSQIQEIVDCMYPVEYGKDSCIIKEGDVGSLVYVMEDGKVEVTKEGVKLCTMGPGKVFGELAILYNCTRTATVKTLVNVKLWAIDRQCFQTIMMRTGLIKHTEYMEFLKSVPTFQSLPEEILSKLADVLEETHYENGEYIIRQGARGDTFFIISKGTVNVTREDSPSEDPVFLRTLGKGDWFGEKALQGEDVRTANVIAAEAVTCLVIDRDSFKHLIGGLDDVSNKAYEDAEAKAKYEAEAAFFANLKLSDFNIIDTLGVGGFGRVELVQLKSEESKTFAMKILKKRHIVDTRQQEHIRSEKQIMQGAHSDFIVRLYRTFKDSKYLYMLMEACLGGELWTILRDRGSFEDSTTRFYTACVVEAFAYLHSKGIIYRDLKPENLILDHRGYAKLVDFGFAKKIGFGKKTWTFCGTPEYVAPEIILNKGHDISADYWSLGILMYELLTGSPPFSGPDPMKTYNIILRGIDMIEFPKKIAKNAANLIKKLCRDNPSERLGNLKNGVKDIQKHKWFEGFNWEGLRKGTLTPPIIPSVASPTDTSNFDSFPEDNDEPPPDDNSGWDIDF
NTRK3 (human), sequence (Q16288 whole entry, looked up): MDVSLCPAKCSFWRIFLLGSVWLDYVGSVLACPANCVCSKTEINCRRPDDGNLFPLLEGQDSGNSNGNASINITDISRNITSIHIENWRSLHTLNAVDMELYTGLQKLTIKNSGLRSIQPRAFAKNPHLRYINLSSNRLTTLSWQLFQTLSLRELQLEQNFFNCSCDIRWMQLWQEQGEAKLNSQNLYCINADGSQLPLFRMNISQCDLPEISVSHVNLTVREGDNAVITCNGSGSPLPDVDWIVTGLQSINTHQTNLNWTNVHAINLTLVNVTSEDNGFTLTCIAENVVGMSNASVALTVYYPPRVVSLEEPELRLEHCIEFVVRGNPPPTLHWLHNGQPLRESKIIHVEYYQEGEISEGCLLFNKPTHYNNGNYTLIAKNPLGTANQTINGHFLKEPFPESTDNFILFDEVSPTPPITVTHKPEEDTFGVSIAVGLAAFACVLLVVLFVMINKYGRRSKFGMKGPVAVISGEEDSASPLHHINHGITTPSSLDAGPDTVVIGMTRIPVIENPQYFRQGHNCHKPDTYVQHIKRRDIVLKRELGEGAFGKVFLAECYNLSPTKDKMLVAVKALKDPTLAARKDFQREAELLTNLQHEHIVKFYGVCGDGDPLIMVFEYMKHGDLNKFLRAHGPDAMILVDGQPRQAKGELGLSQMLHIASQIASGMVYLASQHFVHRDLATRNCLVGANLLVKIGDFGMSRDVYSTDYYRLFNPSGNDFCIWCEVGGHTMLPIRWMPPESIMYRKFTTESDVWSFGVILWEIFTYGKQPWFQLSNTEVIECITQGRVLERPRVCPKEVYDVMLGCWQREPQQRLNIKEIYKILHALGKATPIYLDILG
NEK6 (human), sequence (Q9HC98 whole entry, looked up): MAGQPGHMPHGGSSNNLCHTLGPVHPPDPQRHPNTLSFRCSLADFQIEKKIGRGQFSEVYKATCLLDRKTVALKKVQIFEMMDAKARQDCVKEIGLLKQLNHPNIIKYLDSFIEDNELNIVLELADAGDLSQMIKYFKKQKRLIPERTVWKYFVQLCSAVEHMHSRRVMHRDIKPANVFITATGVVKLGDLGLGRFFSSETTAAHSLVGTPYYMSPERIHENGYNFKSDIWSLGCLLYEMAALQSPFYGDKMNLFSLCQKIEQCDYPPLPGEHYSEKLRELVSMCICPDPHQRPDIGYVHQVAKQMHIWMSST
EPHA7 (human), sequence (Q15375 whole entry, looked up): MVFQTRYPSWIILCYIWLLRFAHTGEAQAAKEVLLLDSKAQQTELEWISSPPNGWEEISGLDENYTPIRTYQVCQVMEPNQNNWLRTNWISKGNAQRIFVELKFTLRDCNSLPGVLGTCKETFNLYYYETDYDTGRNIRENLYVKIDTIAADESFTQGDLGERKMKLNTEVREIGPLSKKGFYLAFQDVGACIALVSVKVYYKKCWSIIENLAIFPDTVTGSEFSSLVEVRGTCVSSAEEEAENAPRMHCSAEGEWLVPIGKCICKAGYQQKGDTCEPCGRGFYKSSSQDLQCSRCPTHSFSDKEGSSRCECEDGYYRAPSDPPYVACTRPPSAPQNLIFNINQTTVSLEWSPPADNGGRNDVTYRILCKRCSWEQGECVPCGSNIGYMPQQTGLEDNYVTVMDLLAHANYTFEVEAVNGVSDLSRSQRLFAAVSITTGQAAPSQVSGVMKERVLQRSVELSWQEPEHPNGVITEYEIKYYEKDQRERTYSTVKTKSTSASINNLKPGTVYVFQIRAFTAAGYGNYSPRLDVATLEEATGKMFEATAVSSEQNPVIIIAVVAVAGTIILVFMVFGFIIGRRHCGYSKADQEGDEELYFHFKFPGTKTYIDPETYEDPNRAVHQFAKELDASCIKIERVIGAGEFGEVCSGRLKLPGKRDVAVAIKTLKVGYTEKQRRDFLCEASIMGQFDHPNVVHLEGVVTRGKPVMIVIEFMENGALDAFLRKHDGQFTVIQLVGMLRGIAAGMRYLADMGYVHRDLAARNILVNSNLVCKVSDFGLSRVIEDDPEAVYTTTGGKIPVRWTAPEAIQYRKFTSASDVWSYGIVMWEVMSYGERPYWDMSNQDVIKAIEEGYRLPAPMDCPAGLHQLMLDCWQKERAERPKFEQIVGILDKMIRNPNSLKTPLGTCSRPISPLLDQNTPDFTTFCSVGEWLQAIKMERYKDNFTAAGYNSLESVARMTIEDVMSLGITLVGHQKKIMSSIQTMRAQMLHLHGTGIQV
DMPK (human), sequence (Q09013 whole entry, looked up): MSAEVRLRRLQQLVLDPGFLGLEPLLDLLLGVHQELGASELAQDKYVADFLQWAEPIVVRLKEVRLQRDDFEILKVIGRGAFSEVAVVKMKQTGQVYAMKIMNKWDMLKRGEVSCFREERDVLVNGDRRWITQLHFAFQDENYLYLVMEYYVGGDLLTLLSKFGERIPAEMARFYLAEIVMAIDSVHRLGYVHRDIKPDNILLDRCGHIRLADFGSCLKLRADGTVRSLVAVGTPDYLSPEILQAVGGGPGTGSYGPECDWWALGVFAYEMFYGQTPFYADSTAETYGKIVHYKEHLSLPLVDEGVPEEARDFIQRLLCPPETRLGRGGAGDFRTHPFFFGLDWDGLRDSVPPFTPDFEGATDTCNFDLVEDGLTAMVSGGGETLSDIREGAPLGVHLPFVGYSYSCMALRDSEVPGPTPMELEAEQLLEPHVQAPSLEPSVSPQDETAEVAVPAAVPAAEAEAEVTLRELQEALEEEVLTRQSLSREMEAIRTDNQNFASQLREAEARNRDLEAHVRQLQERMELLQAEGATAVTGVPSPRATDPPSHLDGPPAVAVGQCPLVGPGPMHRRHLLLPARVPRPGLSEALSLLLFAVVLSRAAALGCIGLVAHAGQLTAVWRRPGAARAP
SGK3 (human), sequence (Q96BR1 whole entry, looked up): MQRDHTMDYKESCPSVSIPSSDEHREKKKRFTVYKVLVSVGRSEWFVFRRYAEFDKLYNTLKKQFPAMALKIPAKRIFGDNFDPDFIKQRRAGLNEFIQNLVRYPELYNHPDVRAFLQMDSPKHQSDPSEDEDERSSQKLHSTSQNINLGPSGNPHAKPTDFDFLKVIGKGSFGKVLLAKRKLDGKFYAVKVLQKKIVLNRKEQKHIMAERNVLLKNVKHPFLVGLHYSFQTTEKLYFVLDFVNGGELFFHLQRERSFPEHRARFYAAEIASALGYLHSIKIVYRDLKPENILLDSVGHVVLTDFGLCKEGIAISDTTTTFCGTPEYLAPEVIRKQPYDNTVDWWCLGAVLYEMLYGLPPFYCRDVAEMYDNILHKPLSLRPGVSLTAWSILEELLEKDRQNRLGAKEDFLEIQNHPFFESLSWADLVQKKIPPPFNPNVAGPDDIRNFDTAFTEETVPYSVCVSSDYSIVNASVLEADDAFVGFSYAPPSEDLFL

Question: What does the source list for `COc1ccc(Cl)cc1NC(=O)Nc1cc(C)nc2ccccc12`?
Answer: residual activity (DAPK1 (human)): 93.3%; residual activity (JAK3 JH1 JH2 (human)): 103%; residual activity (STK3 (human)): 98.9%; residual activity (NEK6 (human)): 97.8%; residual activity (MAP4K2 (human)): 114%; residual activity (HIPK3 (human)): 99.1%; residual activity (EPHA8 (human)): 97.8%; residual activity (MAPKAPK2 (human)): 109%; residual activity (PRKG1 (human)): 108% and 97.5%; residual activity (INSR (human)): 93.2%; residual activity (MELK (human)): 106%; residual activity (CSK (human)): 99.9%; residual activity (TNK2 (human)): 102%; residual activity (EPHA7 (human)): 99.7%; residual activity (AURKB (human)): 95.9%; residual activity (NTRK3 (human)): 102%; residual activity (KIT (human)): 102%; residual activity (STK24 (human)): 81.6%; residual activity (CDK9 CCNT1 (human)): 98.2%; residual activity (BMX (human)): 101%; residual activity (PIM2 (human)): 99.8%; residual activity (SGK3 (human)): 108%; residual activity (ADRBK2 (human)): 103%; residual activity (PAK7 (human)): 85.1%; residual activity [1]: 99.3%; residual activity (PHKG2 (human)): 98.6%; residual activity (GRK5 (human)): 109%; residual activity (TYRO3 (human)): 98.9%; residual activity (MAP3K5 (human)): 101%; residual activity (CHEK2 (human)): 101%; residual activity (STK39 (human)): 98.5%; residual activity (YES1 (human)): 90.1%; residual activity (MATK (human)): 98.2%; residual activity (DMPK (human)): 103%; residual activity (PRKCH (human)): 88.6%; residual activity (CDK9 CCNK (human)): 95.9%; residual activity (LRRK2 (human)): 98%; residual activity (SYK (human)): 88.2%; residual activity (CDK1 CCNA2 (human)): 104%; residual activity (EPHA4 (human)): 104%; residual activity (PRKD1 (human)): 96.6%

Question: For `CN(C)S(=O)(=O)c1ccc2c(c1)/C(=C/c1cc3c([nH]1)CCCC3)C(=O)N2`, which residual activity (DAPK1 (human)) is on record?
Answer: The residual activity was 102%.

Question: What about the residual activity (JAK3 JH1 JH2 (human)) of the same compound?
Answer: Its residual activity is 64.8%.

Question: And the residual activity (STK3 (human))?
Answer: Its residual activity is 24.3%.

Question: And the residual activity (NEK6 (human))?
Answer: The residual activity was 90.7%.

Question: What about the residual activity (MAP4K2 (human)) of the same compound?
Answer: The residual activity was 20.8%.

Question: And the residual activity (HIPK3 (human))?
Answer: Its residual activity is 107%.

Question: What about the residual activity (EPHA8 (human)) of the same compound?
Answer: Its residual activity is 100%.

Question: And the residual activity (MAPKAPK2 (human))?
Answer: Its residual activity is 101%.

Question: And the residual activity (PRKG1 (human))?
Answer: The residual activity was 82.5% and 88.6%.

Question: And the residual activity (INSR (human))?
Answer: Its residual activity is 91.6%.

Question: What about the residual activity (MELK (human)) of the same compound?
Answer: The residual activity was 89.1%.

Question: And the residual activity (CSK (human))?
Answer: The residual activity was 93.1%.

Question: And the residual activity (TNK2 (human))?
Answer: Its residual activity is 12.6%.

Question: And the residual activity (EPHA7 (human))?
Answer: Its residual activity is 91.1%.

Question: What about the residual activity (AURKB (human)) of the same compound?
Answer: Its residual activity is 11%.

Question: And the residual activity (NTRK3 (human))?
Answer: The residual activity was 2.88%.

Question: What about the residual activity (KIT (human)) of the same compound?
Answer: The residual activity was 60.7%.

Question: What about the residual activity (STK24 (human)) of the same compound?
Answer: The residual activity was 47.7%.

Question: And the residual activity (CDK9 CCNT1 (human))?
Answer: The residual activity was 95.9%.

Question: What about the residual activity (BMX (human)) of the same compound?
Answer: The residual activity was 103%.

Question: And the residual activity (PIM2 (human))?
Answer: Its residual activity is 108%.

Question: What about the residual activity (SGK3 (human)) of the same compound?
Answer: Its residual activity is 98.1%.

Question: And the residual activity (ADRBK2 (human))?
Answer: Its residual activity is 97%.

Question: What about the residual activity (NUAK1 (human)) of the same compound?
Answer: The residual activity was 10.9%.

Question: What about the residual activity [1] of the same compound?
Answer: Its residual activity is 66.8%.

Question: And the residual activity (PHKG2 (human))?
Answer: The residual activity was 78.8%.

Question: And the residual activity (GRK5 (human))?
Answer: The residual activity was 95.3%.

Question: And the residual activity (TYRO3 (human))?
Answer: The residual activity was 57.2%.

Question: What about the residual activity (MAP3K5 (human)) of the same compound?
Answer: The residual activity was 106%.

Question: And the residual activity (CHEK2 (human))?
Answer: The residual activity was 46.1%.

Question: What about the residual activity (STK39 (human)) of the same compound?
Answer: The residual activity was 99.5%.

Question: And the residual activity (YES1 (human))?
Answer: Its residual activity is 13.5%.

Question: What about the residual activity (MATK (human)) of the same compound?
Answer: The residual activity was 104%.

Question: And the residual activity (DMPK (human))?
Answer: The residual activity was 102%.

Question: What about the residual activity (PRKCH (human)) of the same compound?
Answer: The residual activity was 78.5%.

Question: And the residual activity (CDK9 CCNK (human))?
Answer: The residual activity was 96.9%.

Question: And the residual activity (LRRK2 (human))?
Answer: Its residual activity is 1.78%.

Question: And the residual activity (SYK (human))?
Answer: The residual activity was 77.7%.

Question: And the residual activity (CDK1 CCNA2 (human))?
Answer: Its residual activity is 70.6%.

Question: What about the residual activity (EPHA4 (human)) of the same compound?
Answer: Its residual activity is 91.3%.

Question: What about the residual activity (PRKD1 (human)) of the same compound?
Answer: Its residual activity is 102%.

Question: What does the source list for `COc1ccc2c(c1)/C(=C/c1cnc[nH]1)C(O)=N2`?
Answer: residual activity (DAPK1 (human)): 105%; residual activity (JAK3 JH1 JH2 (human)): 49.6%; residual activity (STK3 (human)): 12.2%; residual activity (NEK6 (human)): 98.2%; residual activity (MAP4K2 (human)): 42.6%; residual activity (HIPK3 (human)): 101%; residual activity (EPHA8 (human)): 103%; residual activity (MAPKAPK2 (human)): 99.4%; residual activity (PRKG1 (human)): 91.7% and 99%; residual activity (MELK (human)): 36.5%; residual activity (CSK (human)): 96.1%; residual activity (TNK2 (human)): 92.6%; residual activity (EPHA7 (human)): 90.4%; residual activity (AURKB (human)): 40%; residual activity (NTRK3 (human)): 9.35%; residual activity (KIT (human)): 84.1%; residual activity (STK24 (human)): 53.1%; residual activity (CDK9 CCNT1 (human)): 67.4%; residual activity (BMX (human)): 100%; residual activity (PIM2 (human)): 97.2%; residual activity (SGK3 (human)): 101%; residual activity (ADRBK2 (human)): 101%; residual activity (PAK7 (human)): 96.9%; residual activity (NUAK1 (human)): 8.87%; residual activity [1]: 83.8%; residual activity (PHKG2 (human)): 88.3%; residual activity (GRK5 (human)): 97%; residual activity (TYRO3 (human)): 99.2%; residual activity (MAP3K5 (human)): 103%; residual activity (CHEK2 (human)): 77.9%; residual activity (STK39 (human)): 86.1%; residual activity (YES1 (human)): 82.1%; residual activity (MATK (human)): 92.3%; residual activity (DMPK (human)): 104%; residual activity (PRKCH (human)): 111%; residual activity (CDK9 CCNK (human)): 59.4%; residual activity (LRRK2 (human)): 27.9%; residual activity (SYK (human)): 93.9%; residual activity (CDK1 CCNA2 (human)): 43.7%; residual activity (EPHA4 (human)): 98.2%; residual activity (PRKD1 (human)): 47.9%
